The numbers were not newly measured in patent US9586978B2, “Anti-viral compounds” (AbbVie Inc., priority 2009, dated 2017), which cites them from elsewhere.

Series [1] concerns HCV genotype 4a. The note with it: observed by Nettles et al.; read-out: EC50 against HCV genotype 4a; cited from earlier work.
For series [2], the system named is HCV genotype 3a. The note with it: observed by Nettles et al.; read-out: EC50 against HCV genotype 3a; cited from earlier work.
The subject of series [3] is HCV genotype 5a. Conditions: observed by Nettles et al.; read-out: EC50 against HCV genotype 5a; cited from earlier work.
Series [4] deals with HCV genotype 1a. The note with it: observed by Nettles et al.; read-out: EC50 against HCV genotype 1a; cited from earlier work.
Series [5] relates to different HCV genotypes. The note with it: summary over genotypes, see Nettles et al.; cited from earlier work.
Series [6] relates to HCV genotype 1b. The note with it: observed by Nettles et al.; read-out: EC50 against HCV genotype 1b; cited from earlier work.

In general, EC50 refers to the concentration that produces a half-maximal response. On to `COC(=O)N[C@H](C(=O)N1CCC[C@H]1c1ncc(-c2ccc(-c3ccc(-c4cnc([C@@H]5CCCN5C(=O)[C@@H](NC(=O)OC)C(C)C)[nH]4)cc3)cc2)[nH]1)C(C)C` [BMS-790052], for which the EC50 is 12 pM in series [1]; 127 pM in series [2]; 33 pM in series [3]; 50 pM in series [4]; ≤ 200 pM in series [5]; 9 pM in series [6].
